This experiment concerns CEM cells HIV-1 protection, formazan growth assay. In words: NCI AIDS Antiviral Assay. The settings on record: for pIC50: measured here: growth of uninfected CEM cells. The essentials:
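Human CEM cells, uninfected and HIV-1-infected, exposed to five drug concentrations; growth measured by soluble formazan assay and scored as percent protection from infection, with protecting compounds retested.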

Structures are written as SMILES. pEC50, pIC50: −log10 of the molar value. Calls of active or inactive are those of the source.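 The calls were made as follows: active = compounds giving half or more protection of infected cells from virus-caused growth loss, again on retest; inactive = the rest.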

Usually pEC50 stands for the negative decadic logarithm of the EC50, by convention in mol/L. In general, pIC50 refers to the negative decadic logarithm of the IC50, by convention in mol/L. Low values mean a large IC50, high ones a small IC50. Turning to `O=C1NC(=O)C2C1C1C=C3c4ccccc4N(c4ccccc4)C32[C@H]2C(=O)NC(=O)[C@@H]12` (stereo partly drawn), the pEC50 is below 3.50 and the pIC50 is 3.95.

As to `CN1C=C(C(N)=O)Cc2ccsc21`, the pEC50 is below 2.89 and the pIC50 was 4.18.

As for `N#CC(NNC(=O)Cc1ccccc1)c1ccccc1O` (stereo not drawn), the pEC50 is below 3.89 and the pIC50 is 4.77.

On to `CCCCCCCCCCCCNC1(C)CNCCCNCCNCCCNC1`, for which the pEC50 was below 3.60 and the pIC50 is 5.85.

Consider `COC(=O)[C@]12CCC(=O)N1[C@H](C(=O)O)Cc1c2[nH]c2ccccc12`, for which the pEC50 was below 3.70 and the pIC50 is below 3.70.

Turning to `COc1cc2c(cc1OC)C(Cl)C(c1ccc(Br)cc1)=C2Cl` (stereo not drawn), the result was inactive.

`O=C1C2C3C=CC(C2C(=O)N1COP(=O)(O)O)C1C2C(=O)N(COP(=O)(O)O)C(=O)C2C31` (stereo not drawn): the pEC50 was below 4.00 and the pIC50 is below 4.00.

`CC1CN(Cc2ccccc2)C(=N)S1` (stereo not drawn): the pEC50 was below 3.44 and the pIC50 was 3.54.

Turning to `CCNC(=S)N/N=C(/C)c1cccc(/C(C)=N\NC(=S)NCC)n1`, the pEC50 is below 3.70 and the pIC50 was 5.66.

Take `C[n+]1c(-c2ccc(/C=N\NC(=O)c3cncc(C(=O)N/N=C/c4ccc(-c5cn6ccccc6[n+]5C)cc4)c3)cc2)cn2ccccc21`: the pEC50 is below 5.13 and the pIC50 is below 5.13.

`Clc1ccc2nc3nc(-c4ccccc4)c(-c4ccccc4)nc3nc2c1`: the pEC50 was below 4.71 and the pIC50 is below 4.71.

In the case of `CN1CCN=C(c2ccccc2)c2cc(Cl)ccc21`, the pEC50 was below 3.70 and the pIC50 is 3.98.

For the compound `Cc1c(CNc2ccc(Cl)c(Cl)c2Cl)cnc2nc(N)nc(N)c12`, the pEC50 is below 5.70 and the pIC50 was 6.46.

For `CC1CC(c2ccc(Cl)cc2)=Nc2ccccc2S1` (stereo not drawn), the pEC50 was below 5.16 and the pIC50 was below 5.16.

Take `O=[p+]1c2ccccc2[nH]c2ccccc21`: the pEC50 is below 3.70 and the pIC50 was 4.25.

Regarding `CC[P+](CC)(c1ccccc1)c1ccccc1`, the pEC50 was below 3.17 and the pIC50 is 4.02.

With `CN(c1ccccc1)S(=O)(=O)c1ccccc1[N+](=O)[O-]`, the pEC50 is below 3.70 and the pIC50 was 4.19.

In the case of `CCN1C[C@]2(OC(=O)c3ccccc3NC(C)=O)CCC(OC)C34[C@@H]1[C@@](O)(C[C@@H]32)[C@@]1(O)C[C@H](OC)[C@@H]2C[C@@H]4[C@]1(O)C2OC` (stereo partly drawn), the outcome was inactive.

As for `Nc1sc(=S)nc2sc(Nc3ccccc3)nc12`, the pEC50 is below 3.37 and the negative-log IC50 (pIC50) is below 3.37.

In the case of `O=S(=O)(c1ccc(O)cc1)c1ccc(I)cc1`, the pEC50 is below 3.70 and the pIC50 was 4.19.

For `OC1c2c(ccc3c2CCC3)CC12Cc1ccccc1C2` (stereo not drawn), the pEC50 was below 3.70 and the pIC50 was 4.42.

Take `O=[N+]([O-])c1ccc([As](=O)(O)O)c2ccccc12`: the pEC50 is below 3.70 and the pIC50 was below 3.70.

Consider `Cn1cnc2c(sc3nc4ccccc4n32)c1=N`, for which the pEC50 is below 3.70 and the pIC50 is below 3.70.

On to `Cc1cc(C)n2c(nc3ccccc32)c1C#N`, for which the pEC50 was below 3.70 and the pIC50 is 3.83.

`O=c1[nH]c(=O)c2c3n(cc2[nH]1)CCCCC3`: the pEC50 was below 3.70 and the pIC50 is below 3.70.

On to `COc1cc2ccc3c(c2oc1=O)[C@@H](OC(=O)C12CCC(C)(C(=O)O1)C2(C)C)[C@@H](OC(=O)C12CCC(C)(C(=O)O1)C2(C)C)C(C)(C)O3` (stereo partly drawn), for which the pEC50 was 6.07 and the pIC50 is 4.72.

With `O=C(CN1CCCCC1)CC(O)(C(F)(F)F)C(F)(F)F`, the pEC50 was below 3.70 and the pIC50 was 4.18.

As for `CC1CC(=O)Nc2cc(C(F)(F)F)ccc2N1` (stereo not drawn), the pEC50 is below 3.70 and the pIC50 is below 3.70.

Compound `O=c1[nH]c2ccc([As](=O)(O)O)cc2[nH]1` gave a pEC50 below 3.70 and a pIC50 below 3.70.

As to `CCN(CC)C(=S)SS(=O)(=O)c1ccc(F)cc1`, the pEC50 is below 3.70 and the pIC50 was 4.73.

Consider `O=C(Nc1ccc(CC2=NCCCN2)cc1)c1ccc(C(=O)Nc2ccc(CC3=NCCCN3)cc2)cc1`, for which the pEC50 was below 3.70 and the pIC50 is 3.95.

For `Cc1cccc(C)c1NC(=O)C(=O)Nn1c(NN)nc2ccccc2c1=O`, the pEC50 is below 3.17 and the pIC50 is 3.28.

For `O=C(O)C[C@@H]1C(=O)OC2C(COC(=O)c3cc(O)c(O)c(O)c3)OC(OC(=O)c3cc(O)c(O)c(O)c3)C(OC(=O)c3cc(O)c(O)c4c3C1[C@H](O)C(=O)O4)C2OC(=O)c1cc(O)c(O)c(O)c1` (stereo partly drawn), the pEC50 was 5.83 and the pIC50 was 4.89.

As to `CCCCCCCCCCCCCCCCOC1OC(COC(C)=O)C(OC(C)=O)C(OC(C)=O)C1OC(C)=O` (stereo not drawn), the pEC50 was below 4.90 and the pIC50 is below 4.90.

For `CC1(c2cccc3ccc(F)cc23)OC(=O)c2ccccc21` (stereo not drawn), the pEC50 is below 4.38 and the pIC50 was 5.10.

As to `O=c1c(SSc2coc3ccccc3c2=O)coc2ccccc12`, the pEC50 is below 3.70 and the pIC50 is 5.29.

As for `O=C1NC(=O)C2C1c1[nH]c3ccccc3c1C1CCCC12` (stereo not drawn), the outcome was inactive.

For the compound `CCNC(=O)c1cc(NC(=O)c2ccc(C(=O)Nc3cc(C(=O)NCC)cc(C4=NCCN4)c3)cc2)cc(C2=NCCN2)c1`, the pEC50 is below 3.70 and the pIC50 is 4.06.

In the case of `CCOC(=O)C1(C/C=C/CBr)CCc2ccccc2C1=O` (stereo not drawn), the pEC50 is below 3.70 and the pIC50 was 5.67.

On to `N/N=c1\c2ccccc2c2cc3c(cc12)/c(=N/N)c1ccccc13`, for which the pEC50 was below 4.77 and the pIC50 was below 4.77.

As to `[N-]=[N+]=Nc1ccc(SSCCC(=O)ON2C(=O)CCC2=O)cc1`, the pEC50 is below 3.70 and the pIC50 was 5.12.

On to `Cc1cn(CCCCOC(=O)NC(CCCN=C(N)N)C(=O)O)c(=O)[nH]c1=O` (stereo not drawn), for which the pEC50 was below 3.70 and the pIC50 is below 3.70.

Regarding `COc1cc(CC(=O)O)c([N+](=O)[O-])cc1OC`, the pEC50 was below 2.99 and the pIC50 was 3.05.

`COC(=O)C1CCc2c1c(=O)n1c([nH]c3ccccc31)c2C#N` (stereo not drawn): the pEC50 is below 4.39 and the pIC50 is below 4.39.

With `O=S1(=O)O[C@H]2CCCC[C@@H]2O1`, the pEC50 was below 4.34 and the pIC50 is below 4.34.

`O=P(O)(O)OC1C(OP(=O)(O)O)C(OP(=O)(O)O)C(OP(=O)(O)O)C(OP(=O)(O)O)C1OP(=O)(O)O` (stereo not drawn): the pEC50 is below 3.70 and the pIC50 is below 3.70.

`CCSC(=O)C1(C)OC2CCCCC2C1=O` (stereo not drawn): the outcome was inactive.

In the case of `NC(=O)N(O)c1cccc(Br)c1`, the pEC50 is below 3.70 and the pIC50 is 3.84.

As for `COCCOCCOCCOc1cccc2c1C(=O)c1c(OCCOCCOCCOC)cccc1C2=O`, the outcome was inactive.

As for `CCNC(=O)C(O)C1(O)CCC2[C@@H]3CCC4=CC(=O)C=C[C@]4(C)C3C(O)C[C@@]21C` (stereo partly drawn), the result was inactive.

For `O=C(Nc1ncnc2c1ncn2C1CC(OC(=O)c2ccc([N+](=O)[O-])cc2)C(COC(=O)c2ccc([N+](=O)[O-])cc2)O1)c1ccccc1` (stereo not drawn), the result was inactive.

Regarding `S=P(N1CCOCC1)(N1CC1)N1CC1`, the pEC50 was below 3.70 and the pIC50 is 5.28.

As to `C/C(=N\N=C(\N)OB(F)F)c1ccccn1`, the pEC50 was below 3.70 and the pIC50 was 3.85.

For `COc1cc2c(cc1OCCCCN1C(=O)c3cccc4cccc(c34)C1=O)N=C[C@@H]1CCCN1C2=O`, the pEC50 was below 3.70 and the pIC50 was 5.46.

Take `C1CCN(c2nc(=[N+]3CCCCC3)ss2)CC1`: the result was inactive.

`C[S+](C)c1ccc(Cl)cc1`: the pEC50 is below 3.06 and the pIC50 was 4.16.

In the case of `C1CN2CCN3CCN4CCN1[P+]243`, the result was inactive.

For `Cc1cccc2nc3nc(Cl)c(Cl)nc3n12`, the pEC50 was below 3.70 and the pIC50 was 3.89.

`CCc1ccccc1NC(=O)/C(N=O)=C(/C)O`: the pEC50 was below 3.82 and the pIC50 is below 3.82.

In the case of `CCOC(=O)/C(=C\c1cccc([N+](=O)[O-])c1)[Se]c1ccccc1`, the pEC50 is below 4.58 and the pIC50 was 4.97.

Regarding `Cc1cc(N(CCC#N)CCC#N)ccc1/C(Sc1ccccc1)=C(\NC(=O)/C=C/c1ccccc1)C(=O)Sc1ccccc1`, the pEC50 was below 4.67 and the pIC50 is 4.90.

As for `COc1ccc2c(c1)CC1(O)COc3cc(OC)ccc3C1O2` (stereo not drawn), the pEC50 is below 3.70 and the pIC50 is 4.17.

As to `CC(C)(C)N1CC1CNC(=O)C(=O)NCC1CN1C(C)(C)C` (stereo not drawn), the pEC50 was below 3.70 and the pIC50 was 5.87.

As for `CN(C)c1ccc(C2ON=C(c3ccccc3)N2C23CC4CC(CC(C4)C2)C3)cc1` (stereo not drawn), the pEC50 is below 3.70 and the pIC50 is 4.62.

As for `CC1(C)Oc2cc3oc(=O)ccc3c3c2C2C1CCC(C)(O3)C2O` (stereo not drawn), the pEC50 is below 3.12 and the pIC50 is 3.50.

As for `C[C@]12CCC[C@H](OC=O)C1(O)C[C@H](C(=O)O)CC2` (stereo partly drawn), the outcome was inactive.

In the case of `CCCCCCNC(=O)/C(=C/C=C/c1ccccc1)NC(=O)c1ccccc1`, the pEC50 is below 3.70 and the pIC50 is 4.31.

As to `CCOC(=O)/C(=C\c1ccc(Cl)cc1)P(=O)(OCC)OCC`, the pEC50 is below 4.82 and the pIC50 is 4.85.

As to `N#Cc1c(-c2ccccc2)cc(-c2ccc(N)cc2)[nH]c1=O`, the pEC50 is below 4.74 and the pIC50 is below 4.74.

In the case of `CCCCCCCCCCCCCCCCCCOC(COP(=O)(O)OCC1CCC(n2ccc(NC(=O)CCCCCCCCCCCCCCC)nc2=O)O1)COP(=O)(O)OCC1OC(n2cc(C)c(=O)[nH]c2=O)CC1N=[N+]=[N-]` (stereo not drawn), the pEC50 was 6.06 and the pIC50 was 4.30.

In the case of `COc1ccc2c(c1)CCN1CCCc3ccccc3C21` (stereo not drawn), the pEC50 was below 3.70 and the pIC50 is 4.57.

Take `Cc1cc(C)n(-c2nc(C)c(CCO)c(=O)[nH]2)n1`: the outcome was inactive.

For the origin of these results see PubChem BioAssay AID179 (DTP/NCI, 2004).
